This passage reports IC50 results from patent publication US8999957B2, “Heterocyclic compounds as ERK inhibitors” (Merck Sharp & Dohme Corp., priority 2010, dated 2015).

The target in the experiment is fully phosphorylated, active Mouse ERK2 protein (Mus musculus (Mouse), UniProt P63085). Nature of the experiment: Active ERK2 (aERK) IMAP assay, condition 1. The experiment is classed as biochemical. To be noted: aERK assay condition 1, 30 μM ATP. On the procedure:
Active ERK2 (aERK) Assay: (Unless Indicated Otherwise, the Data Provided for aERK was obtained using Condition 1)
Activated ERK2 activity was also determined in the IMAP assay format using the procedure outlined above. […] Reactions proceeded for 30 minutes before termination by addition of 60 μl IMAP detection beads in binding buffer. Plates were read as above after 30 minute binding equilibration.

Chain of fully phosphorylated, active Mouse ERK2 protein (P63085 whole entry): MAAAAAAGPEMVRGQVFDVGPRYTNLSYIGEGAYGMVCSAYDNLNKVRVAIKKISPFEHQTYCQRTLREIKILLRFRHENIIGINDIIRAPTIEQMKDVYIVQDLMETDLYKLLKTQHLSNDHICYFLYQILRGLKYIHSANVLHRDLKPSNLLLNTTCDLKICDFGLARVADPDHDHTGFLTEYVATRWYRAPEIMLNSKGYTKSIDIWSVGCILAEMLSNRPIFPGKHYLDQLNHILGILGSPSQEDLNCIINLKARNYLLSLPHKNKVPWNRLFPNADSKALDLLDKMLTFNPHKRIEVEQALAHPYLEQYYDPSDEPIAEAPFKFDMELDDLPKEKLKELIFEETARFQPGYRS

Broadly, the IC50 is the point on the concentration scale where inhibition reaches its midpoint. A low value points to greater potency in that assay. Consider `O=C(NC1CN(C(=O)OCc2ccccc2)CC(F)(F)C1)c1ccc2[nH]nc(-c3ccncc3)c2c1` (centres unmarked), for which the IC50 was determined as 105 nM.

Turning to `CN1CC(Cc2ccccc2)CC(NC(=O)c2ccc3[nH]nc(-c4ccncc4)c3c2)C1` (centres unmarked), 8.34 nM corresponded to half-maximal inhibition (IC50).

Turning to `CC(C)Oc1ccc(-c2n[nH]c3ccc(C(=O)N[C@@H]4CNC[C@H](c5ccccc5)C4)cc23)cc1`, it took 45.1 nM to reach half-maximal inhibition (IC50).

As for `COc1cccc(F)c1CN1CCC[C@@H](NC(=O)c2ccc3[nH]nc(-c4ccncc4)c3c2)C1`, the IC50 was found to be 13.9 nM.

Consider `O=C(NC12CC1CCN(Cc1ccccc1)C2)c1ccc2[nH]nc(-c3ccc4nccn4c3)c2c1` (centres unmarked), for which the IC50 turned out to be 200 nM.

In turn, `[2H]C([2H])([2H])N1CC[C@@H](c2ccccc2)[C@H](NC(=O)c2ccc3[nH]nc(-c4ccc(OC(C)C)cc4)c3c2)C1` yielded an IC50 of 300 nM.

For the compound `COc1cccc(F)c1CN1C[C@@H](C)C[C@@H](NC(=O)c2ccc3[nH]nc(-c4ccc5nonc5c4)c3c2)C1`, 128 nM corresponded to half-maximal inhibition (IC50).

In the case of `Cn1cc(-c2n[nH]c3ccc(C(=O)N[C@@H]4CCCN(Cc5ccccc5F)C4)cc23)ccc1=O`, the IC50 amounted to 21.1 nM.

For `COCCOc1cccc(F)c1CN1CCC[C@@H](NC(=O)c2ccc3[nH]nc(-c4ccncc4)c3c2)C1`, the IC50 was 16.9 nM.

As for `COc1cccc(F)c1CN1C[C@H](NC(=O)c2ccc3[nH]nc(-c4ccc5nccn5c4)c3c2)C[C@@H](C(F)(F)F)C1`, the IC50 worked out at 181 nM.

For `O=C(NC1CCCCN(CCc2cccc(F)c2)C1)c1ccc2[nH]nc(-c3ccncc3)c2c1` (centres unmarked), inhibition was half-maximal at 13.4 nM (IC50).

The compound `CN1CC(Cc2c(F)cccc2F)CC(NC(=O)c2ccc3[nH]nc(-c4ccn5ncnc5c4)c3c2)C1` (centres unmarked) gave an IC50 of 3.83 nM.

Compound `COc1cccc(F)c1CN1CC(NC(=O)c2ccc3[nH]nc(-c4ccc5nccn5c4)c3c2)CCC1C1CC1` (centres unmarked) came in with an IC50 of 49.3 nM.

Consider `O=C(N[C@@H]1CCCNC1)c1ccc2[nH]nc(-c3ccncc3)c2c1`, for which inhibition was half-maximal at 835 nM (IC50).

Regarding `CCN1CC(Cc2c(F)cccc2F)CC(NC(=O)c2ccc3[nH]nc(-c4ccc5nn(C)cc5c4)c3c2)C1` (centres unmarked), it took 3.09 nM to reach half-maximal inhibition (IC50).

The compound `COC(=O)[C@H]1CC[C@@H](NC(=O)c2ccc3[nH]nc(-c4ccncc4)c3c2)CN1Cc1ccccc1` gave an IC50 of 133 nM.

Turning to `O=C(N[C@@H]1CCCN(c2ccccc2F)C1)c1ccc2[nH]nc(-c3ccncc3)c2c1`, half-maximal inhibition (IC50) was put at 62.3 nM.

Compound `O=C(NC1CCCCN(Cc2ccccn2)C1)c1ccc2[nH]nc(-c3ccncc3)c2c1` (centres unmarked) gave an IC50 of 369 nM.

As for `COc1cccc(F)c1CN1CCC(O)C(NC(=O)c2ccc3[nH]nc(-c4ccc5nccn5c4)c3c2)C1` (centres unmarked), the IC50 worked out at 42.1 nM.

Take `COc1cccc(F)c1CN1CCC[C@@H](NC(=O)c2ccc3[nH]nc(-c4ccc5nc(C)nn5c4)c3c2)C1`: 22.2 nM corresponded to half-maximal inhibition (IC50).

Regarding `O=C(N[C@@H]1CCCN(Cc2ccc3occc3c2)C1)c1ccc2[nH]nc(-c3ccc4c(c3)CCO4)c2c1`, it took 22.9 nM to reach half-maximal inhibition (IC50).

Turning to `COc1cccc(F)c1CN1CCCCC(NC(=O)c2ccc3[nH]nc(-c4ccncc4)c3c2)C1` (centres unmarked), the IC50 was 231 nM.

In turn, `CN1C[C@H](Cc2c(F)cccc2F)C[C@@H](NC(=O)c2ccc3[nH]nc(-c4ccc5nonc5c4)c3c2)C1` registered an IC50 of 1000 nM.

In the case of `COC(=O)[C@@H]1CC[C@@H](NC(=O)c2ccc3[nH]nc(-c4ccncc4)c3c2)CN1`, the IC50 came to 144 nM.

In turn, `O=C(N[C@@H]1CCCN(Cc2ccccc2C(F)(F)F)C1)c1ccc2[nH]nc(-c3ccc4c(c3)CCO4)c2c1` displayed an IC50 of 1000 nM.

Consider `O=C(NC1CCCCN(CC2CCc3ccccc32)C1)c1ccc2[nH]nc(-c3ccncc3)c2c1` (centres unmarked), for which it took 85.4 nM to reach half-maximal inhibition (IC50).

Take `CCNC(=O)[C@@H]1CC[C@@H](NC(=O)c2ccc3[nH]nc(-c4ccncc4)c3c2)CN1Cc1ccccc1` [drawing 353]: the midpoint of inhibition, the IC50, lay at 48.3 nM.

The compound `N#Cc1cccc(CN2CCC[C@@H](NC(=O)c3ccc4[nH]nc(-c5ccc6c(c5)CCO6)c4c3)C2)c1` yielded an IC50 of 999 nM.

`COc1cccc(F)c1CN1CCC[C@@H](NC(=O)c2ccc3[nH]nc(-c4ccc5nncn5c4)c3c2)C1` registered a concentration for half-maximal inhibition (IC50) of 6.46 nM.

`COc1cccc(F)c1CN1C[C@H](NC(=O)c2ccc3[nH]nc(-c4ccncc4)c3c2)CCC1CO` (some centres unmarked): the IC50 was 3.58 nM.

`COc1cccc(F)c1CN1CCC(O[Si](C)(C)C(C)(C)C)C(NC(=O)c2ccc3[nH]nc(-c4ccc5nccn5c4)c3c2)C1` (centres unmarked) came in with a concentration for half-maximal inhibition (IC50) of 318 nM.

`CN1C[C@@H](Cc2c(F)cccc2F)C[C@@H](NC(=O)c2ccc3[nH]nc(-c4ccc5nonc5c4)c3c2)C1`: it took 8.82 nM to reach half-maximal inhibition (IC50).

`Cn1cc2cc(-c3n[nH]c4ccc(C(=O)N[C@H]5C[C@@H](C(F)(F)F)CN(Cc6c(F)cccc6F)C5)cc34)ccc2n1` returned an IC50 of 375 nM.

`Cc1cc(-c2n[nH]c3ccc(C(=O)NC4CC[C@H]5CC[C@@H]4N5Cc4ccccc4F)cc23)ccn1` (some centres unmarked) registered an IC50 of 9.1 nM.

Compound `COc1cccc(F)c1CN1C[C@@H](C)C[C@@H](NC(=O)c2ccc3[nH]nc(-c4ccn5ncnc5c4)c3c2)C1` showed a half-maximal inhibitory concentration (IC50) of 15.1 nM.

The compound `O=C(NC1COCCN(CCc2cccc(F)c2)C1)c1ccc2[nH]nc(-c3ccncc3)c2c1` (centres unmarked) showed an IC50 of 61.6 nM.

The compound `O=C(N[C@@H]1CC[C@@H](C(=O)NCc2ccccc2)N(Cc2ccccc2)C1)c1ccc2[nH]nc(-c3ccncc3)c2c1` [drawing 352] displayed an IC50 of 47.5 nM.

With `COc1cccc(F)c1CN1C[C@H](C)C[C@H](NC(=O)c2ccc3[nH]nc(-c4ccc5nsnc5c4)c3c2)C1`, 73.6 nM corresponded to half-maximal inhibition (IC50).

With `O=C(NC1CN(Cc2ccccc2)CC(F)(F)C1)c1ccc2[nH]nc(-c3ccncc3)c2c1` (centres unmarked), half-maximal inhibition (IC50) required 144 nM.

`COc1cccc(F)c1CN1C2CCC(NC(=O)c3ccc4[nH]nc(-c5ccnc(C)c5)c4c3)C1CC2` (centres unmarked) showed an IC50 of 20.4 nM.

`O=C(NC1CCCCN(CCc2cccc3ccccc23)C1)c1ccc2[nH]nc(-c3ccncc3)c2c1` (centres unmarked) came in with an IC50 of 12.9 nM.

For `CC(C)(C)OC(=O)N1CC[C@@H](c2ccccc2)[C@H](NC(=O)c2ccc3[nH]nc(-c4ccc5c(c4)CCO5)c3c2)C1`, the IC50 amounted to 300 nM.

`COC[C@H]1CC[C@@H](NC(=O)c2ccc3[nH]nc(-c4ccncc4)c3c2)CN1Cc1c(F)cccc1OC` returned an IC50 of 456 nM.

With `O=C(CN1CCCCC(NC(=O)c2ccc3[nH]nc(-c4ccncc4)c3c2)C1)c1ccccc1` (centres unmarked), the IC50 came to 34.8 nM.

`CN1CC(Cc2c(F)cccc2F)CC(NC(=O)c2ccc3[nH]nc(-c4ccc5nsnc5c4)c3c2)C1` (centres unmarked) gave an IC50 of 3.23 nM.

With `O=C(NC1CCCCN(CCCc2ccccc2)C1)c1ccc2[nH]nc(-c3ccncc3)c2c1` (centres unmarked), 72.5 nM corresponded to half-maximal inhibition (IC50).

Compound `O=C(NC1COCCN(CCc2ccccc2F)C1)c1ccc2[nH]nc(-c3ccncc3)c2c1` (centres unmarked) came in with an IC50 of 9.84 nM.

Take `Cc1nc2ccc(-c3n[nH]c4ccc(C(=O)N[C@@H]5C[C@H](Cc6c(F)cccc6F)CN(C)C5)cc34)cn2n1`: the midpoint of inhibition, the IC50, lay at 1.45 nM.

Turning to `Cn1cc2cc(-c3n[nH]c4ccc(C(=O)N[C@H]5CCN[C@H](Cc6ccccc6)C5)cc34)ccc2n1`, the IC50 was 33.8 nM.

`CC(C)Oc1ccc(-c2n[nH]c3ccc(C(=O)N[C@@H]4CN(C)CC[C@H]4c4ccccc4)cc23)cn1` registered an IC50 of 300 nM.

Take `Cn1cnnc1CN1CCC[C@@H](NC(=O)c2ccc3[nH]nc(-c4ccncc4)c3c2)C1`: the IC50 came out at 231 nM.

For the compound `CN1CC[C@@H](c2ccccc2)[C@H](NC(=O)c2ccc3[nH]nc(-c4ccc5c(c4)CCO5)c3c2)C1`, the IC50 was found to be 118 nM.

`COc1cccc(F)c1CN1C[C@H](C)C[C@H](NC(=O)c2ccc3[nH]nc(-c4ccc5ncsc5c4)c3c2)C1` had an IC50 of 15.2 nM.

Take `CCN1CC[C@@H](c2ccccc2)[C@H](NC(=O)c2ccc3[nH]nc(-c4ccc(OC(C)C)cc4)c3c2)C1`: the midpoint of inhibition, the IC50, lay at 650 nM.

Compound `COc1cccc(F)c1CN1CCCC(NC(=O)c2ccc3[nH]nc(-c4ccnc(C)c4)c3c2)C1C` (centres unmarked) yielded an IC50 of 66.9 nM.

Compound `CCOC(=O)C1CCN(Cc2ccccc2)CC1NC(=O)c1ccc2[nH]nc(-c3ccncc3)c2c1` (centres unmarked) registered an IC50 of 191 nM.

Regarding `COc1cccc(F)c1CN1C[C@H](NC(=O)c2ccc3[nH]nc(-c4ccc5nccn5c4)c3c2)CCC1=O`, the IC50 came out at 69.2 nM.

As to `CN1C[C@@H](Cc2c(F)cccc2F)C[C@H](NC(=O)c2ccc3[nH]nc(-c4ccn5ccnc5c4)c3c2)C1`, the IC50 is 150 nM.

As for `COc1cccc(F)c1CN1C[C@H](NC(=O)c2ccc3[nH]nc(-c4ccc5nccn5c4)c3c2)C[C@H](C(F)(F)F)C1` [drawing 317], it took 18 nM to reach half-maximal inhibition (IC50).

Compound `O=C(NC1CCCCN(Cc2c(F)cccc2F)C1)c1ccc2[nH]nc(-c3ccncc3)c2c1` (centres unmarked) showed an IC50 of 148 nM.

`COc1cccc(F)c1CN1CCC[C@@H](NC(=O)c2ccc3[nH]nc(-c4ccc5nonc5c4)c3c2)C1` came in with an IC50 of 301 nM.

With `COC(=O)[C@@H]1CC[C@@H](NC(=O)c2ccc3[nH]nc(-c4ccncc4)c3c2)CN1Cc1c(F)cccc1OC`, the IC50 came out at 40.5 nM.

The compound `O=C(N[C@H]1CN(Cc2c(F)cccc2F)CC(F)(F)C1)c1ccc2[nH]nc(-c3ccc4nccn4c3)c2c1` gave an IC50 of 234 nM.

For `COc1cccc(F)c1CN1C[C@H](NC(=O)c2ccc3[nH]nc(-c4ccc5nccn5c4)c3c2)C[C@H](C(F)(F)F)C1` [drawing 377], it took 4.46 nM to reach half-maximal inhibition (IC50).

Regarding `O=C(NC1CCCCN(CCc2ccccc2F)C1)c1ccc2[nH]nc(-c3ccncc3)c2c1` (centres unmarked), it took 5 nM to reach half-maximal inhibition (IC50).

For `CC(C)Oc1cc(-c2n[nH]c3ccc(C(=O)N[C@@H]4CNCC[C@H]4c4ccccc4)cc23)ccn1`, the midpoint of inhibition, the IC50, lay at 141 nM.

As for `Cc1cc(-c2n[nH]c3ccc(C(=O)N[C@@H]4CCCN(CC(F)(F)c5ccccc5F)C4)cc23)ccn1`, half-maximal inhibition (IC50) required 170 nM.

As for `O=C(N[C@@H]1CC[C@@H](C(=O)NCc2ccccc2)NC1)c1ccc2[nH]nc(-c3ccncc3)c2c1`, the IC50 worked out at 120 nM.

For the compound `O=C(NC1CCCCN(CCc2c(F)cccc2F)C1)c1ccc2[nH]nc(-c3ccncc3)c2c1` (centres unmarked), the IC50 is 43.3 nM.

Turning to `O=C(N[C@@H]1CCCN(Cc2c(F)cccc2F)C1)c1ccc2[nH]nc(-c3ccnc(Cl)c3)c2c1`, half-maximal inhibition (IC50) was put at 62.3 nM.

Turning to `CCc1nnc2ccc(-c3n[nH]c4ccc(C(=O)N[C@@H]5CCCN(Cc6c(F)cccc6OC)C5)cc34)cn12`, the midpoint of inhibition, the IC50, lay at 70.9 nM.
